Experiments:
[1] = system: Peripheral blood lymphocytes; experiment: Proliferation of peripheral blood lymphocytes stimulated in vitro with anti-CD3 antibody; format: in vivo, human
Procedure: Nine subjects (3/group) were orally administered 0.2 mg, 1.0 mg or 5.0 mg of OKT3 daily for 5 days and immune parameters measured on days 5, 10 and 30 days (FIG. 12). Six subjects (3/group) received 7.5 mg of beta glucosylceramide in combination with 0.2 mg or 1.0 mg of OKT3 and 3 subjects received GC alone. All subjects were treated with 20 mg of Omeprazole (a proton pump inhibitor) during the 5 days of dosing. Dosing occurred in the morning before breakfast at the study site following a 8 hours fast. PBMCs were isolated from blood samples using Ficol Hypaque solution. To measure proliferation, 2×10^5 cells per well were cultured in triplicate in RPMI 1640 medium with 5% FBS (Biological Industries, Israel), 100 units/ml penicillin, 100 µg/ml streptomycin, 1% Glutamine, 1% non essential […], 1% sodium pyruvate and β-mercapto-ethanol (Biological Industries, Israel). Cells were stimulated with pre-coated antibodies (in 200 μl PBS/well):μg/well of anti OKT-3 mAb (Ortho Biotech Inc, New Jersey, USA) or 5 μg/ml soluble anti-CD3 mAb (eBioscience, CA, USA) or 2.5 μg/ml anti-CD28 mAb (R&D systems, MN, USA). One set of the above wells were added nothing while 10 μg of GC was added to a similar set for 72 h in culture at 37° C. with 5% CO2. Supernatants were collected for IL-13, IL-17 and IFN-γ. Enzyme-linked immunosorbent assays for these cytokines were performed according to the manufacturer's protocol (R&D Systems, Minneapolis, Minn.). For TGF-β, 2×10^5 cells per well were cultured in serum free media (Biotarget, Biological Industries, Israel). After collecting the supernatants, 1 µCi [^3H]thymidine (Amersham Biosciences, UK) was added to each well, and cells were harvested 18 h later. Proliferation was measured by scintillation counting. Unlike what has been reported for treatment with IV anti-CD3 (which is also given at a dose of 5 mg per day for five days), no decrease in the CD3+ lymphocyte counts or modulation of CD3 from the T cell surface was observed. […] An identical pattern was observed when results were calculated as stimulation indices.

T cells = experiment: FACS of activation and regulatory markers on T cells; format: in vivo, human
Procedure: Frozen PBMCs were used for sorting different cell populations, surface staining, and proliferation assays, and cytokine measurements. Cell sorting was performed by thawing […] PBMCs at room temperature (RT) and washing themed twice in medium at RT in 50-ml tubes in a 10-ml volume at 1,400 rpm. Cells were suspended to 20×10^6/ml and stained with seven colors staining of cells using Fc block, Lin-FITC, CD11c-APC, CD123-PE, CD3-Amcyan, CD4-Alexa700, CD25-PB, and 7-AAD was performed. Compensation controls, including an unstained control, were prepared. All samples were washed with medium and filtered into 15-ml tubes with 2 ml volume each to a total volume of 2 ml. CD4+ effector T cells, CD4+ regulatory T cells, myeloid DCs, and plasmacytoid DCs were sorted. Tubes were washed to get retrieve all sticky cells and spin them at 1,400 rpm. All cell populations were put in 350 μl of RLT 350 ul (lysis buffer), and transferred to eppendorff microtubes, and froze at −70° C. RNA was prepared using Qiagen micro kits (Valencia, Calif., USA) and cDNA was prepared using Applied Biosystems kits (Foster City, Calif., USA). We performed real-time PCR (RT-PCR) for different genes on in regulatory T cells, effector T cells, and DCs was performed.
For surface staining, one tube of frozen PBMCs was thawed at room temperature (RT) and washed twice in medium at RT in 50-ml tubes (10-ml volume) at 1,400 rpm. Cells were re-suspended cells at 8-10×10^6 cells/ml and 100 μl was aliquoted into each of 100 ul in 11 wells. For LAP+ cells (two wells), controls wells were preincubated with rLAP for 20 mins, and seven-colors staining of cells using CD3-Amcyan, CD4-Alexa700, CD8-APC, CD25-PB, and LAP-PE for 40 mins was preformed for 40 minutes. Cells were washed and stained with Annexin FITC and 7-AAD in Annexing binding buffer for 15 minutes. Cells were washed and analyzed immediately in Annexin Binding Buffer.
For Foxp3 surface staining (two wells), surface six-colors staining of cells using CD3-Amcyan, CD4-Alexa700, CD8-APC, and CD25-PB were performed for 30 minutes. Intracellular staining for IC/Foxp3-PE from eBiosciences was followed. For all other surface markers (7wellsseven wells), seven—color staining of cells was performed, using CD3-Amcyan, CD4-Alexa700, CD8-APC, CD25-PB, and Annexin FITC, 7-AAD, and IC/CD62L/CD69/CD45RO/CD127/CD28/HLA-DR-PE was performed. Cells were then washed Wash twice and Fix fixed the cells with 0.1% paraformaldehyde. Compensation controls, including an unstained control, were prepared. (Lin-FITC, CD11c-APC, CD123-PE, and CD3-Amcyan were tested in 1 μl/100 μl; CD4-Alexa700, CD25-PB, and 7-AAD were tested in 0.5 ul/100 μl; and LAP-PE, and Annexin-FITC were tested in 3 ul/100 μl).
For surface staining, freshly isolated PBMCs were suspended at 8-10×10^6 cells/ml. Surface two to three colors staining of cells were done with the following surface antibodies: CD4-FITC/CD25-PE, CD8− FITC/CD25-PE, CD3-APC/CD69-PE, CD11c-APC/Lin-FITC/CD86-PE, CD11c-APC/Lin-FITC/CD83-PE, CD11c-APC/Lin-FITC/HLAdr-PE. For LAP staining cells were preincubated with rLAP/control antibody for 20 mins, and stained with CD4-FITC and CD25-PE or CD8-FITC. […]
The inventors next investigated activation of markers and markers associated with regulation on T cells following oral OKT3 treatment. Regulatory T cells were measured by CD25hi, and effector cells were measured by CD25int/lo markers. […]

For “OKT3: murine monoclonal anti-CD3 antibody (Orthoclone OKT-3, Ortho Biotech)”, the “subjects with increase in proliferation that peaked at day five” value (from here on “subjects with increase”) ([1]; 0.2 mg oral) was “one subject”, the “subjects with increase” value ([1]; 1.0 mg oral daily for 5 days, three subjects) was “all three subjects” and the “subjects with increase” value ([1]; 5 mg oral) was “two subjects”. For the same substance, the “subjects with similar pattern (increase) for CD8+CD25+ T cells” value (T cells; 0.2 mg oral, not shown) was “two subjects”, the “CD4+CD25+ and CD8+CD25+ T cells” value (T cells; 1.0 mg fed group) was “increase” and the “CD25hi Foxp3+ cells and CD25hi CTLA4 cells” value (T cells; 1.0 mg oral) was “increase”. For the same substance, the “expression of TGF-β on CD25int/lo T cells” value (T cells; 1.0 mg oral) was “increase” and the “subjects with similar pattern (increase) for CD8+CD25+ T cells” value (T cells; 1.0 or 5.0 mg oral) was “all six subjects”.

From patent US9981037B2, “Combination therapy of beta-glycolipids and antibodies for the treatment of immune-related disorders” (HADASIT MEDICAL RESEARCH SERVICES AND DEVELOPMENT LTD., priority 2008, dated 2018)
